According to patent US9000050B2, “SHIP1 modulators and related methods” (The University of British Columbia, priority 2010, dated 2015):
Values after ≈ are worked out from the molar mass of the structure shown.

Molecular target: T1, His-hSHIP1 enzyme (Homo sapiens, UniProt Q92835)
T1 construct: His
T1 sequence (Q92835 1-1189): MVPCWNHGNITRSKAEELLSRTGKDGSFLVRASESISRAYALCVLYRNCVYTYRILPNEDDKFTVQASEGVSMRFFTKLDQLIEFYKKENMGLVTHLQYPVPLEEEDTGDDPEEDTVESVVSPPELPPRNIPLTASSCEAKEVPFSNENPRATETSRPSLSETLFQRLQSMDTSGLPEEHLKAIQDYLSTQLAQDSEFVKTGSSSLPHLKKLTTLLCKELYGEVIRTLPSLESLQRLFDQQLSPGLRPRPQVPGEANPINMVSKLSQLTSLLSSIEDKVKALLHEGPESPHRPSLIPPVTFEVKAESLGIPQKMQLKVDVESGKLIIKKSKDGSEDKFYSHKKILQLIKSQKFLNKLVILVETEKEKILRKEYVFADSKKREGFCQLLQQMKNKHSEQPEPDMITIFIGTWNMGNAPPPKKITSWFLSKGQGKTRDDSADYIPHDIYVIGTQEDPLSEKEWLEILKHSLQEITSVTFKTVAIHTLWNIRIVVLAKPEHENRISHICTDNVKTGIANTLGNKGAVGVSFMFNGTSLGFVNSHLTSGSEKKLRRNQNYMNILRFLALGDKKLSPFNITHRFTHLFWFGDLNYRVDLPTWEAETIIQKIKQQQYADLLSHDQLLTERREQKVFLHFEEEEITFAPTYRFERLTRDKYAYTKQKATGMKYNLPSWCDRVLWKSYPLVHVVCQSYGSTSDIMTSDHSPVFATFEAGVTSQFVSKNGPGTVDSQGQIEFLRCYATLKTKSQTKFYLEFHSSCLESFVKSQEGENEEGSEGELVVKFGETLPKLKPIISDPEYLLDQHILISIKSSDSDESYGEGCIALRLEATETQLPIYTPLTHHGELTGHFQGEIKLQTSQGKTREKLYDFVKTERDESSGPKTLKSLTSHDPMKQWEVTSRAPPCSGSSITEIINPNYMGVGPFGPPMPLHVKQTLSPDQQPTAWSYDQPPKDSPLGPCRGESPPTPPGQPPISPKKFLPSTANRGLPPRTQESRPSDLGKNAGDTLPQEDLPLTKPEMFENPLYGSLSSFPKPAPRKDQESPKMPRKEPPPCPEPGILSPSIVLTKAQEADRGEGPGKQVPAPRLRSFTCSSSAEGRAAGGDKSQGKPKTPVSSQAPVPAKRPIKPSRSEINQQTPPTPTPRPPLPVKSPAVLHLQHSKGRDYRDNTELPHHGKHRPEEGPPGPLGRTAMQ
Assay: His-hSHIP1 enzyme activation assay (IP4 substrate, Biomol Green phosphate release)
Assay type: biochemical
Conditions: percentage increase relative to background; concentrations ≦300 μM
Protocol: Test compounds are dissolved in 95% ethanol to form stock solutions. Before screening, the stock solutions are diluted with Phosphatase Assay Buffer (20 mM Tris-HCL, 10 mM MgCl2 pH 7.5, 0.02% Tween 20) to form working assay solutions that contain 10% ethanol. The assay is carried out on 96-well microtiter plates using a modified procedure of that reported by Ong et al., Blood 110, 1942-1949, 2007 and Yang et al., Org Lett 7, 1073-1076, 2005, both of which references are incorporated herein by reference in their entirety.
Each reaction contains 5 μL of His-hSHIP1 enzyme (15-20 ng), 10 μL of the substrate, 1,3,4,5-inositol tetrakisphosphate (IP4; 50 μM final), 5 μL of Phosphatase Assay Buffer, and 5 μL of test compound at various concentrations in 10% ethanol (0-300 μM final). Control blanks are also prepared by replacing His-hSHIP1 enzyme, IP4, or test compounds with Phosphatase Assay Buffer. After adding the reaction components in a 96-well microtiter plate on ice, the reaction is mixed by briefly shaking the plate vigorously. The reaction is then incubated at 37° C. for 15 min with gentle shaking followed by addition of 100 μL of Biomol Green Reagent (BIOMOL, PA, USA) to terminate the reaction. The free phosphate released from IP4 by His-hSHIP1 binds to the Biomol Green Reagent, which turns the dye to green color. After incubating the mixture for 20 min at room temperature for color development, the absorbance is read with SpectraMax Plus 96-well plate reader (Molecular Devices, Sunnyvale, Calif., USA) at a wavelength of 650 nm.
Percent (%) activation in Table 2 is expressed as a percentage increase relative to background. Scoring is expressed as follows: +(<25%); ++(≧25% but <50%); +++(≧50%).

SMILES | Activation of His-hSHIP1 Enzyme, Scoring (percent activation)
CC1(C)[C@@H](N)CC[C@]2(C)[C@H]3Cc4cc(O)cc(O)c4[C@]3(C)CC[C@@H]12 [Compound 9b] | + (<25%)
CC1(C)[C@H]2CC[C@]3(C)c4c(O)cc(O)cc4C[C@H]3[C@]2(C)CC[C@@H]1N.Cl [8a•HCl, (3S,4aS,6aS,11aS,11bS)-3-Amino-4,4,6a,11b-tetramethyl-2,3,4,4a,5,6,6a,11,11a,11b-decahydro-1H-benzo[a]fluorene-7,9-diol Hydrochloride] | + (<25%)
COc1cc(C)c2c(c1)C[C@H]1[C@]3(C)CC[C@@H](O)C(C)(C)[C@H]3CC[C@]21C (racemic) [17a/17b] | ++ (≧25% but <50%)
Cc1cc(O)cc2c1[C@@]1(C)CC[C@@H]3C(C)(C)C(=O)CC[C@@]3(C)[C@@H]1C2 (racemic) [19a/19b] | ++ (≧25% but <50%)
CC1(C)C(=O)CC[C@]2(C)[C@@H]1CC[C@]1(C)c3c(O)cc(O)cc3C[C@@H]21 (racemic) [7a/7b] | +++ (≧50%)
COc1cc2c(c(OC)c1)[C@@]1(C)CC[C@@H]3C(C)(C)[C@H](O)CC[C@@]3(C)[C@@H]1C2 (racemic) [5a/5b] | ++ (≧25% but <50%)
CC1(C)[C@H](O)CC[C@]2(C)[C@@H]1CC[C@]1(C)c3c(O)cc(O)cc3C[C@@H]21 (racemic) [16a/16b] | ++ (≧25% but <50%)

Tested on: not listed separately
Assay: Water solubility (24 h stirring in deionized water, HPLC)
Assay type: physicochemical
Conditions: thermodynamic from solid, stirred 24 hours, read-out: Soluble Concentration
Protocol: Samples are weighed accurately in duplicate (˜3 mg each) in 4 mL glass vials. The appropriate amount of deionized water is added to obtain a final concentration of 6 mg/mL. A stir bar is placed in the vial and the two mixtures are stirred for 24 hours, after which the samples are filtered using a glass filter membrane. The resulting filtrate is centrifuged in a glass conical tube for 10 minutes at 10,000 rpm to sediment any precipitate that may have passed through the glass membrane. The supernatant is sampled for HPLC analysis. The concentration of the test compound is determined by HPLC using a six-point standard curve of the compound prepared in methanol.

SMILES | solubility at 24 h
CC1(C)[C@H]2CC[C@]3(C)c4c(O)cc(O)cc4C[C@H]3[C@]2(C)CC[C@@H]1N.Cl [8a•HCl, (3S,4aS,6aS,11aS,11bS)-3-Amino-4,4,6a,11b-tetramethyl-2,3,4,4a,5,6,6a,11,11a,11b-decahydro-1H-benzo[a]fluorene-7,9-diol Hydrochloride] | 1400 µg/mL
CC1(C)[C@@H](O)CC[C@]2(C)[C@H]3Cc4cc(O)cc(O)c4[C@]3(C)CC[C@@H]12 [Compound 16b, (3S,4aR,6aR,11aR,11bR)-2,3,4,4a,5,6,6a,11,11a,11b-decahydro-4,4,6a,11b-tetramethyl-1H-benzo[a]fluorene-3,7,9-triol] | 133 µg/mL (≈ 402 µM)
